Experimental data taken from US9526250B2, “Methods for delaying maturity of crops” (Plant Protectants, LLC, priority 2009, dated 2016).

Experiments:
[1] = test system: green lemons; experiment: Fruit dipping of green lemons, peel color development (example 1); type: in vivo; conditions: 2 min immersion at 50° F., incubated at 15° C., chart of FIG. 2 (1-8), initial color approx 5.5
Description: (§1) The invention is further illustrated by the following non-limiting examples. It is to be appreciated that, although each of the exemplary experiments used potassium phosphite, that other salts of phosphorous acid, including without limitation, ammonium, sodium, and/or calcium salts, as well as phosphorous acid itself may also have been used. For examples 1 and 2 below, assessment of citrus fruit peel color was made using the following color grading charts (FIG. 1 for Navels; FIG. 2 for Lemons) in addition to the Dictionary of Color by Maerz and Paul, First Edition (1930). All experiments were conducted in solutions at approximately pH 6, although pH ranges from between about 3 and about 9 are acceptable.
Five different treatments (A-E below) were made. There were four replications for each of the five treatments, with each replicate comprising six fruit pieces. Thus, each treatment was applied to 24 fruit pieces. […]
After the treatments were applied and left to dry for 10 minutes, all treatments were recorded for peel color using FIG. 2 above and the Dictionary of Color, and rated for color development and photographed. The fruit was placed in humid incubators at 15° C. and monitored weekly for color development. […]

[2] = test system: oranges (Navels); experiment: Fruit dipping of oranges at color break, peel color development (example 2); type: in vivo, navel oranges; conditions: 2 min immersion at 50° F., incubated at 15° C., chart of FIG. 1 (1-8), initial color 5.5
Description: as §1
Five different treatments (A-E below) were made. There were four replications for each of the five treatments, with each replicate comprising six fruit pieces. Thus, each treatment was applied to 24 fruit pieces. The fruit treated in this example were oranges at the color break stage, the fruit being predominantly green with some development of orange color (initial color 5.5). […]
After the treatments were applied and left to dry for 10 minutes, all treatments were recorded for peel color using FIG. 1 above and the Dictionary of Color, and rated for color development and photographed. The fruit was placed in humid incubators at 15° C. and monitored weekly for color development. […]

[3] = test system: navel orange tree (variety Cara Cara); experiment: Field spray of navel orange trees in situ, fruit color development (example 3); type: in vivo; conditions: Navels on trees, pH about 5-6, assessed approximately 30 days later, chart of FIG. 1
Description: Five different treatments (T1-T5 below) were made. There were four replications for each of the five treatments, with each replicate comprising one navel orange tree (variety Cara Cara) in situ. Thus, each treatment was applied to 4 different trees. Treatments were all made using a motorized high volume agricultural sprayer and an application volume equivalent to 5000 L/ha (liters/hectare), or approximately 530 gallons/acre. This is approximately equivalent to 12.5 L (3.3 gal)/tree. The trees were sprayed during early color break (late October/early November) with a wetting agent added at 0.01% (v/v).
Treatments were as follows: • T1. Untreated trees=control. • T2. Water solution containing gibberellic acid at 16 ppm. • T3. Water solution containing potassium phosphite (expressed as equivalent amount of phosphorous acid) sprayed at 600 ppm. • T4. A tank water mixture of potassium phosphite (expressed as equivalent amount of phosphorous acid) sprayed at 300 ppm plus gibberellic acid at 16 ppm • T5. […]
The spray tank pH for all the treatments T2-T5 were adjusted with citric acid to a pH of between about 5 and about 6 (in accordance with the manufacturers instructions for gibberellic acid usage), and a small amount of a non ionic wetter added to the tank (0.01% v/v). […] The fruit on the trees were assessed for color development approximately 30 days later, during December. […]

[4] = test system: firm green tomatoes; experiment: Fruit dipping of firm green tomatoes, peel color development (example 4); type: in vivo; conditions: 2 min immersion at 75° F., incubated at 30° C., USDA chart of FIG. 5, initial 3.5
Description: For example 4 below, assessment of the tomato peel color was made using the USDA color grading chart (FIG. 5) in addition to the Dictionary of Color.
The color grading chart (FIG. 5) is a reproduction of the “Tomato Color Standards USDA Visual Aid TM-L-1” which consists of a chart containing twelve color photographs illustrating certain color classification requirements. The official USDA chart is incorporated herein by this reference. Table 6 below sets forth approximate cross-references to the Dictionary of Color for the 12 colors of the USDA chart:
In example 4, five different treatments (A-E below) were made. There were four replications for each of the five treatments, with each replicate comprising six fruit pieces. Thus, each treatment was applied to 24 fruit pieces. The fruit treated in this example were firm green tomatoes according to the chart above was 3.5 (initial color 11-C-22) at the onset of color break. Immersion temperatures were approximately 75° F. (24° C.). […]
After the treatments were applied and left to dry for 10 minutes, all treatments were recorded for peel color using the Dictionary of Color and also the USDA Tomato Color Standards Chart (FIG. 5 herein), and rated for color development and photographed. […] (86° F.) and monitored weekly for color development. […]

[5] = gibberellic acid 100 ppm in water

C=C1C[C@]23C[C@@]1(O)CC[C@H]2[C@@]12C=C[C@H](O)[C@@](C)(C(=O)O1)[C@H]2[C@@H]3C(=O)O [Gibberellic acid (GA), gibberellic acid]
Mean Color Rating [1, 5]: 3 b | Mean Color Rating [2, 5]: 3.2 b | Mean Color Rating ([3]; gibberellic acid 16 ppm sprayed at 5000 L/ha): 3.2 b | Mean Color Rating ([4]; gibberellic acid 100 ppm): 4.6 b

potassium phosphite
Mean Color Rating ([1]; 2% (w/w) potassium phosphite): 3.6 c | Mean Color Rating ([2]; 2% (w/w) potassium phosphite): 3.5 bc | Mean Color Rating ([3]; potassium phosphite 600 ppm (as phosphorous acid) sprayed at 5000 L/ha): 3.5 bc | Mean Color Rating ([4]; 2% (w/w) potassium phosphite): 4.8 b
